Test results as given in patent publication US7923204B2, “Forward mutation assay based on 5-fluorouracil resistance” (priority 2003, dated 2011).
Where two headings read alike, the source gives them in different places.

Experiments:
[1] = system: TA100 his+
Method: A study was then conducted to determine the optimal concentration of the selective agent 5-FU. The growth rate was determined for cultures in MinE containing up to 8 μg/ml 5-FU.

[2] = system: chromosome aberrations; settings: NTP Results Report 12 Aug. 2002; cited from earlier work
[3] = system: TA100, TA1535; settings: TA100 or TA1535; plate incorporation or liquid suspension
Source text: As stated above, the Ames Salmonella his+ plate incorporation assay evaluates genotoxic activity (mutagenicity) of chemical compounds on a set of genetically modified bacterial tester strains that are auxotrophic for the amino acid histidine. In practice, the Ames Assay simultaneously evaluates the genotoxic activity of a potential mutagen on several different target genes. The standard Ames Assay utilizes several different tester strains, each with a distinct mutation (e.g., transition, frameshift etc.) in one of the genes comprising the histidine (his) biosynthetic operon. The his operon encodes enzymes required for the biosynthesis of the amino acid histidine. For example, strain TA98 contains the hisD3052 allele which is reverted by a frameshift mutation, while strain TA1535 contains the hisG46 allele which is reverted by transition and transversion mutations. More specifically, the Ames Assay evaluates the ability of a chemical agent to increase the rate of reversion of auxotrophic strains of Salmonella to prototrophy.

[4] = system: FU100; settings: approximate, first dose with greater than 50% survival by optical density on Day 1
[5] = system: Salmonella; settings: NTP Results Report 12 Aug. 2002 or cited reference (footnotes f, g, i, j); cited from earlier work
[6] = system: FU100; settings: for Results (5-FU assay): FU100, 2 h exposure; for Lowest Positive Dose: lowest dose tested giving a positive response; for response in the 5-FU Assay (in words): text and figure legend (FIG. 6), with or without S9
In short: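 Exponentially growing FU100 bacteria (OD600 0.3) were exposed to test compound for 2 h with or without rat liver S-9 plus NADPH-generating system. After 3 h growth (OD600 toxicity read) and overnight expression at 30 °C, cells were plated with 2 μg/ml 5-FU and bromcresol purple. Yellow FU^R wells were counted after 3 days at 37 °C.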

[7] = system: mouse lymphoma; settings: NTP Results Report 12 Aug. 2002; cited from earlier work
[8] = system: sister chromatid exchange; settings: NTP Results Report 12 Aug. 2002; cited from earlier work
[9] = system: micronucleus; settings: NTP Results Report 12 Aug. 2002; cited from earlier work
[10] = system: wild-type cells; assay: Growth inhibition by 5-fluoroorotic acid (block of de novo pyrimidine synthesis); type: cell-based, Salmonella; settings: 50 μg/ml; reversed by addition of 20 μg/ml uracil
Source text: It was recognized that reducing the background mutation frequency by eliminating preexisting FU^R mutants could increase the sensitivity of the assay. Since the only mechanism leading to 5-FU resistance in Salmonella involves loss of uracil phosphoribosyltransferase, a uracil salvage enzyme and product of the upp gene, it was theorized that blockage of the de novo pyrimidine synthesis and supplementation with uracil should permit growth of wild-type cells and selection against FU^R upp mutants.
It was also determined that upp mutants cannot grow in the presence of 5-fluorooroticacid and uracil, presumably due to their inability to utilize exogenous uracil. […] Frozen stocks of FU100 were prepared using cultures grown under these conditions (described in Materials and Methods) in order to produce “cleansed” working stocks with reduced background.

[11] = in the presence of S9 activation (+)

Compound | 5-FU concentration that significantly inhibited culture growth [1] | 5-FU concentration at which cultures continued to grow (longer doubling times) ([1]; cultures in MinE, up to 8 μg/ml 5-FU, data not shown) | NTP Results: CA = chromosome aberrations [2] | response in the standard Ames assay (in words) [3] | LD50 [4, 11] | LD50 ([4]; without S9 activation (−)) | NTP Results: SA = Salmonella [5] | Results (5-FU assay) [6, 11] | Lowest Positive Dose [6, 11] | response in the 5-FU Assay (in words) [6] | Results (5-FU assay) ([6]; without S9 activation (−)) | Lowest Positive Dose ([6]; without S9 activation (−)) | NTP Results: ML = mouse lymphoma [7] | NTP Results: SC = sister chromatid exchange [8] | NTP Results: MN = micronucleus [9] | response in the 5-FU Assay (in words) ([6]; listed as 1,2-epoxybutane) | effect on growth of wild-type cells [10]
O=c1[nH]cc(F)c(=O)[nH]1 [5-FU, 5-fluorouracil] | greater than or equal to 1 μg/ml | less than or equal to 0.5 μg/ml |  |  |  |  |  |  |  |  |  |  |  |  |  |  | 
ClCc1ccccc1 [Benzyl Chloride] |  |  | + | weak or equivocal response | >150 µg/mL | >1500 µg/mL | +^w | Pos | 50 µg/mL | easy to detect | Pos | 28 µg/mL | + | + |  |  | 
CCC1CO1 (stereo not shown) [1,2-Epoxybutane] |  |  | + | weak or equivocal response | >5000 µg/mL | >5000 µg/mL | + | Pos | 500 µg/mL | positive compounds in non-toxic concentrations | Pos | 8.9 µg/mL | + | + | − | easy to detect | 
O=C(O)c1[nH]c(=O)[nH]c(=O)c1F [5-fluorooroticacid, 5-fluoroorotic acid] |  |  |  |  |  |  |  |  |  |  |  |  |  |  |  |  | inhibited growth
O=P1(N(CCCl)CCCl)NCCCO1 (stereo not shown) [Cyclophosphamide•H2O] |  |  | (SA+, CA+, SC+, MN+) | positive | >300 µg/mL | >1500 µg/mL | (SA+, CA+, SC+, MN+) | Pos^w | 1500 µg/mL | weak positive | Neg |  |  | (SA+, CA+, SC+, MN+) | (SA+, CA+, SC+, MN+) |  | 
